Literature values as cited in patent publication US20040224039A1, “Compositions and methods for the treatment of diseases and disorder associated with oxidative damage” (priority 2003, published 2004).

Conditions: following the administration of 500 mg aspirin

## CC(=O)Oc1ccccc1C(=O)O [aspirin, acetylsalicylic acid]
  plasma level: 130 µM
